{"source": "paper PMC7413254", "about": "(Nature Communications, 2020)", "key": {"non-expressing oocytes [1]": {"tested_on": "non-expressing oocytes", "assay_type": "cell-based, Xenopus laevis", "settings": "non-expressing oocytes, total [3H]CQ transport, normalised to the oocyte type control", "procedure,_shortened": "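Oocytes (ten per treatment, ≥4 independent frogs/days) were preloaded by injecting VF-6 in 25 nL ND96 at pH 5.0, 5.5, 6.0 or 7.0, or Na^+-free choline buffer, then uptake run 1.5 h, 27.5 °C, ND96 pH 5.5 by default. Internal concentrations assumed ~400 nL oocyte volume.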"}, "non-expressing oocytes [2]": {"tested_on": "non-expressing oocytes", "assay": "cells", "assay_type": "cell-based, Xenopus laevis", "settings": "non-expressing oocytes, total [3H]CQ transport, normalised to the oocyte type control", "procedure,_shortened": "(§1)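 Washed oocytes (ten per treatment) were exposed to label in pH 5.5 ND96 for 1.5 h at 27.5 °C. Buffer was then removed, cells rinsed in ice-cold ND96, lysed in SDS and counted.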"}, "PfCRT^Ecu1110 [3]": {"target": "T1, PfCRT^Ecu1110 (Plasmodium falciparum, UniProt Q9N623, A220S/I356L/K76T/N326D)", "T1 sequence (Q9N623 whole entry A220S/I356L/K76T/N326D)": "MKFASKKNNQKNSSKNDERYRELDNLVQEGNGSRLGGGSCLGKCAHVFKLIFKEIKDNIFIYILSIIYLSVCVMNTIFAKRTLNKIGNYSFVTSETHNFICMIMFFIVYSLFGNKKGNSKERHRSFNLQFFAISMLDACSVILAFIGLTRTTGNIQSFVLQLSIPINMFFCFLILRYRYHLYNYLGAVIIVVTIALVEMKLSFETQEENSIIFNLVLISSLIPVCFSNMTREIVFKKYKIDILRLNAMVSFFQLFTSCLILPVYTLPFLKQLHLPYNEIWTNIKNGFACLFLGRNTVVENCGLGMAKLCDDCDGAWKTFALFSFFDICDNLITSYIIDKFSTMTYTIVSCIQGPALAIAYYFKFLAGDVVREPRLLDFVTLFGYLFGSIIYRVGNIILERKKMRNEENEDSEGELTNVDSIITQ", "assay": "cell-based", "assay_type": "cell-based", "settings": "for PfCRT-mediated [3H]CQ transport, trans-stimulation (% PfCRTEcu1110 control): normalised to oocyte type control; for [3H]CQ transport (% PfCRTDd2 control), trans-stimulation, PfCRTEcu1110: PfCRT-mediated component (background subtracted), sheet title says normalised to PfCRTDd2 control, mean ± SEM, SEM", "procedure,_shortened": "(§2)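 Transport measured in Xenopus oocytes expressing the transporters, 1.5 h at 27.5 °C in ND96 pH 5.5 unless noted. For trans-stimulation, VF-6 injected in 25 nL ND96 at pH 5.0–7.0 or Na^+-free (choline) buffer; intracellular levels based on ~400 nL oocyte volume. Ten oocytes per treatment, ≥4 experiments.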"}, "PfCRT^Dd2 [4]": {"target": "T2, PfCRT^Dd2 (Plasmodium falciparum, UniProt Q9N623, A220S/I356T/K76T/M74I/N326S/N75E/Q271E/R371I)", "T2 sequence (Q9N623 whole entry A220S/I356T/K76T/M74I/N326S/N75E/Q271E/R371I)": "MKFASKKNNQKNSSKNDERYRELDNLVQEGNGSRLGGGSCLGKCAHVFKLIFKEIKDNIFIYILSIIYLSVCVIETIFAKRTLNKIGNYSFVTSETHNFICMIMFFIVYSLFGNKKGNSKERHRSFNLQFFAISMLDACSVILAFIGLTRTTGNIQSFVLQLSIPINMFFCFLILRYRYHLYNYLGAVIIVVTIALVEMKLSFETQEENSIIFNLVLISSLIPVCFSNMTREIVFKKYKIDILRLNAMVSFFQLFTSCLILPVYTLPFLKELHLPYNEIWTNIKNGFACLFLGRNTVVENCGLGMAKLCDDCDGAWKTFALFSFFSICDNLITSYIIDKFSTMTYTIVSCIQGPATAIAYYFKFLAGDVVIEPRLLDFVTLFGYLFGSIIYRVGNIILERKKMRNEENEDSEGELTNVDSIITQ", "assay": "cell-based", "assay_type": "cell-based", "settings": "for Uptake of [3H]CQ (% PfCRTDd2 control), trans-stimulation / PfCRT-mediated [3H]CQ transport, trans-stimulation (% PfCRTDd2 control): PfCRTDd2 oocytes; for Uptake of [3H]CQ (% PfCRTDd2 control), trans-stimulation: total [3H]CQ transport, normalised to the oocyte type control; for PfCRT-mediated [3H]CQ transport, trans-stimulation (% PfCRTDd2 control): normalised to oocyte type control; for [3H]CQ transport (% PfCRTDd2 control), trans-stimulation, PfCRTDd2: PfCRT-mediated component (background subtracted), mean ± SEM, SEM", "procedure,_shortened": "as §2"}, "PfNT1": {"target": "T3, PfNT1 (Plasmodium falciparum, UniProt Q8IDM6)", "T3 construct": "expressed in transfected cells; host or cells: Xenopus laevis oocytes (stage V-VI), cRNA-injected", "T3 sequence (Q8IDM6 whole entry)": "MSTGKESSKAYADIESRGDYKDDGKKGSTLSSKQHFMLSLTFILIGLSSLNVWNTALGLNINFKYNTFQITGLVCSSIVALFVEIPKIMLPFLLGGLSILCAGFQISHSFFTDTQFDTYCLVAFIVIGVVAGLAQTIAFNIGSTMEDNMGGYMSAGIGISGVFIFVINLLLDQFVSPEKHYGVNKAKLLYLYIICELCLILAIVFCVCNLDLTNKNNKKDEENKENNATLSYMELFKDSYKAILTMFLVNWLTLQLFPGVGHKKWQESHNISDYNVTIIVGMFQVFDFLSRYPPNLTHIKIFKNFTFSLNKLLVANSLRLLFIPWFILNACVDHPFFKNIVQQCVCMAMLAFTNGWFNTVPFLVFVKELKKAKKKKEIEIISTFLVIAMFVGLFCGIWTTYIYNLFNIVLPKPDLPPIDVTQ", "assay": "cell-based", "assay_type": "cell-based", "settings": "PfNT1 oocytes, total [3H]CQ transport, normalised to the oocyte type control", "procedure,_shortened": "as §2"}, "PfCRT^3D7 [5]": {"target": "T4, PfCRT^3D7 (Plasmodium falciparum, UniProt Q8IBZ9)", "T4 sequence (Q8IBZ9 59-398)": "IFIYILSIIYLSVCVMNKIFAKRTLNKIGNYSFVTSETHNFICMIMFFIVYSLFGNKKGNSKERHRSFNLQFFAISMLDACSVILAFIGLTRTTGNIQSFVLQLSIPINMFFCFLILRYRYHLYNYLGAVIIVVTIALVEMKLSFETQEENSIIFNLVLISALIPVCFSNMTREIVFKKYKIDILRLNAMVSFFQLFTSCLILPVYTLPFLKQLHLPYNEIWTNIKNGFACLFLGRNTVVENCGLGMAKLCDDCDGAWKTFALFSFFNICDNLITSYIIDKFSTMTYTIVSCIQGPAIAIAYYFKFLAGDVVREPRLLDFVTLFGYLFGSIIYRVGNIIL", "assay": "cell-based", "assay_type": "cell-based", "settings": "for Uptake of [3H]CQ (% PfCRT3D7 control), trans-stimulation / PfCRT-mediated [3H]CQ transport, trans-stimulation (% PfCRT3D7 control): PfCRT3D7 oocytes; for Uptake of [3H]CQ (% PfCRT3D7 control), trans-stimulation: total [3H]CQ transport, normalised to the oocyte type control; for PfCRT-mediated [3H]CQ transport, trans-stimulation (% PfCRT3D7 control): normalised to oocyte type control", "procedure,_shortened": "as §2"}, "PfCRT^3D7 [6]": {"target": "T4, PfCRT^3D7", "assay": "cell-based", "assay_type": "cell-based", "settings": "PfCRT3D7 oocytes, total [3H]CQ transport, normalised to the oocyte type control", "procedure,_shortened": "as §1"}, "PfCRT^Ecu1110 [7]": {"target": "T1, PfCRT^Ecu1110", "assay": "[3H]CQ uptake into Xenopus oocytes, cis-inhibition by unlabelled solute", "assay_type": "cell-based", "settings": "for Uptake of [3H]CQ (% PfCRTEcu1110 control), cis-inhibition / PfCRT-mediated [3H]CQ transport, cis-inhibition (% PfCRTEcu1110 control): PfCRTEcu1110 oocytes; for Uptake of [3H]CQ (% PfCRTEcu1110 control), cis-inhibition: total [3H]CQ transport, normalised to the oocyte type control; for PfCRT-mediated [3H]CQ transport, cis-inhibition (% PfCRTEcu1110 control): background [3H]CQ accumulation subtracted, normalised to oocyte type control", "procedure,_shortened": "as §1"}, "PfCRT^Dd2 [8]": {"target": "T2, PfCRT^Dd2", "assay": "[3H]CQ uptake into Xenopus oocytes, cis-inhibition by unlabelled solute", "assay_type": "cell-based", "settings": "PfCRTDd2 oocytes, background [3H]CQ accumulation subtracted, normalised to oocyte type control", "procedure,_shortened": "as §1"}, "[9]": {"settings": "[test solute]i = 45 mM (30 mM for some solutes due to solubility)"}, "[10]": {"settings": "[test solute]i = 5 mM (injected)"}, "[11]": {"settings": "[test solute]i = 5 mM (intracellular)"}, "[12]": {"settings": "[test solute]i = 45 mM (intracellular; 30 mM for some solutes due to solubility)"}}, "note": "Read-outs that look alike come from different tables or passages of the source.", "data": [{"substance": "HVDD [HD-4]", "values": [{"measurement": "Uptake of [3H]CQ (% non-expressing oocyte control), trans-stimulation", "setting": "non-expressing oocytes [1]; [test solute]i = 5 mM", "result": "100 ± 3.6 % non-expressing oocyte control"}, {"measurement": "Uptake of [3H]CQ (% non-expressing oocyte control), trans-stimulation", "setting": "non-expressing oocytes [1]; [9]", "result": "98 ± 3.3 % non-expressing oocyte control"}, {"measurement": "Uptake of [3H]CQ (% non-expressing oocyte control), cis-inhibition", "setting": "non-expressing oocytes [2]; [test solute] = 0.5 mM", "result": "99 ± 5.3 % non-expressing oocyte control"}, {"measurement": "Uptake of [3H]CQ (% non-expressing oocyte control), cis-inhibition", "setting": "non-expressing oocytes [2]; [test solute] = 1 mM", "result": "100 ± 5.2 % non-expressing oocyte control"}, {"measurement": "Uptake of [3H]CQ (% non-expressing oocyte control), cis-inhibition", "setting": "non-expressing oocytes [2]; [test solute] = 2 mM", "result": "97 ± 5.5 % non-expressing oocyte control"}, {"measurement": "Uptake of [3H]CQ (% PfCRTEcu1110 control), trans-stimulation", "setting": "PfCRT^Ecu1110 [3]; PfCRTEcu1110 oocytes, [test solute]i = 45 mM (30 mM for some solutes due to solubility), total [3H]CQ transport, normalised to the oocyte type control", "result": "99 ± 3.2", "unit": "% PfCRTEcu1110 control"}, {"measurement": "PfCRT-mediated [3H]CQ transport, trans-stimulation (% PfCRTEcu1110 control)", "setting": "PfCRT^Ecu1110 [3]; [test solute]i = 5 mM (intracellular), PfCRTEcu1110 oocytes", "result": "99 ± 4.9", "unit": "% PfCRTEcu1110 control"}, {"measurement": "PfCRT-mediated [3H]CQ transport, trans-stimulation (% PfCRTEcu1110 control)", "setting": "PfCRT^Ecu1110 [3]; [test solute]i = 45 mM (intracellular; 30 mM for some solutes due to solubility), PfCRTEcu1110 oocytes", "result": "97 ± 4.8", "unit": "% PfCRTEcu1110 control"}, {"measurement": "[3H]CQ transport (% PfCRTDd2 control), trans-stimulation, PfCRTEcu1110", "setting": "PfCRT^Ecu1110 [3]; [10]", "result": "30 ± 1.6", "unit": "% PfCRTEcu1110 control"}, {"measurement": "[3H]CQ transport (% PfCRTDd2 control), trans-stimulation, PfCRTEcu1110", "setting": "PfCRT^Ecu1110 [3]; [9]", "result": "29 ± 1.5", "unit": "% PfCRTEcu1110 control"}, {"measurement": "Uptake of [3H]CQ (% PfCRTDd2 control), trans-stimulation", "setting": "PfCRT^Dd2 [4]; [test solute]i = 5 mM", "result": "99 ± 4.3", "unit": "% PfCRTDd2 control"}, {"measurement": "Uptake of [3H]CQ (% PfCRTDd2 control), trans-stimulation", "setting": "PfCRT^Dd2 [4]; [9]", "result": "100 ± 2.4", "unit": "% PfCRTDd2 control"}, {"measurement": "PfCRT-mediated [3H]CQ transport, trans-stimulation (% PfCRTDd2 control)", "setting": "PfCRT^Dd2 [4]; [11]", "result": "97 ± 2.9", "unit": "% PfCRTDd2 control"}, {"measurement": "PfCRT-mediated [3H]CQ transport, trans-stimulation (% PfCRTDd2 control)", "setting": "PfCRT^Dd2 [4]; [12]", "result": "98 ± 3.9", "unit": "% PfCRTDd2 control"}, {"measurement": "[3H]CQ transport (% PfCRTDd2 control), trans-stimulation, PfCRTDd2", "setting": "PfCRT^Dd2 [4]; [10]", "result": "97 ± 2.9", "unit": "% PfCRTDd2 control"}, {"measurement": "[3H]CQ transport (% PfCRTDd2 control), trans-stimulation, PfCRTDd2", "setting": "PfCRT^Dd2 [4]; [9]", "result": "98 ± 3.9", "unit": "% PfCRTDd2 control"}, {"measurement": "Uptake of [3H]CQ (% PfNT1 control), trans-stimulation", "setting": "PfNT1; [test solute]i = 5 mM", "result": "100 ± 2.7", "unit": "% PfNT1 control"}, {"measurement": "Uptake of [3H]CQ (% PfNT1 control), trans-stimulation", "setting": "PfNT1; [9]", "result": "99 ± 2.5", "unit": "% PfNT1 control"}, {"measurement": "Uptake of [3H]CQ (% PfCRT3D7 control), trans-stimulation", "setting": "PfCRT^3D7 [5]; [test solute]i = 5 mM", "result": "98 ± 4.1", "unit": "% PfCRT3D7 control"}, {"measurement": "Uptake of [3H]CQ (% PfCRT3D7 control), trans-stimulation", "setting": "PfCRT^3D7 [5]; [9]", "result": "96 ± 1.7", "unit": "% PfCRT3D7 control"}, {"measurement": "[3H]CQ transport (% PfCRT3D7 control), trans-stimulation, PfCRT3D7", "setting": "PfCRT^3D7 [5]; SEM", "result": "0.1 ± 0.01"}, {"measurement": "PfCRT-mediated [3H]CQ transport, trans-stimulation (% PfCRT3D7 control)", "setting": "PfCRT^3D7 [5]; [11]", "result": "96 ± 3.3", "unit": "% PfCRT3D7 control"}, {"measurement": "PfCRT-mediated [3H]CQ transport, trans-stimulation (% PfCRT3D7 control)", "setting": "PfCRT^3D7 [5]; [12]", "result": "94 ± 4.9", "unit": "% PfCRT3D7 control"}, {"measurement": "Uptake of [3H]CQ (% PfCRT3D7 control), cis-inhibition", "setting": "PfCRT^3D7 [6]; [test solute] = 0.5 mM", "result": "100 ± 3.8", "unit": "% PfCRT3D7 control"}, {"measurement": "Uptake of [3H]CQ (% PfCRT3D7 control), cis-inhibition", "setting": "PfCRT^3D7 [6]; [test solute] = 1 mM", "result": "102 ± 3.7", "unit": "% PfCRT3D7 control"}, {"measurement": "Uptake of [3H]CQ (% PfCRT3D7 control), cis-inhibition", "setting": "PfCRT^3D7 [6]; [test solute] = 2 mM", "result": "99 ± 3.6", "unit": "% PfCRT3D7 control"}, {"measurement": "Uptake of [3H]CQ (% PfCRTEcu1110 control), cis-inhibition", "setting": "PfCRT^Ecu1110 [7]; [test solute] = 0.5 mM", "result": "53 ± 8.3", "unit": "% PfCRTEcu1110 control"}, {"measurement": "Uptake of [3H]CQ (% PfCRTEcu1110 control), cis-inhibition", "setting": "PfCRT^Ecu1110 [7]; [test solute] = 1 mM", "result": "44 ± 6.1", "unit": "% PfCRTEcu1110 control"}, {"measurement": "Uptake of [3H]CQ (% PfCRTEcu1110 control), cis-inhibition", "setting": "PfCRT^Ecu1110 [7]; [test solute] = 2 mM", "result": "32 ± 4.7", "unit": "% PfCRTEcu1110 control"}, {"measurement": "PfCRT-mediated [3H]CQ transport, cis-inhibition (% PfCRTEcu1110 control)", "setting": "PfCRT^Ecu1110 [7]; [test solute] = 0.5 mM", "result": "49 ± 1.4", "unit": "% PfCRTEcu1110 control"}, {"measurement": "PfCRT-mediated [3H]CQ transport, cis-inhibition (% PfCRTEcu1110 control)", "setting": "PfCRT^Ecu1110 [7]; [test solute] = 1 mM", "result": "39 ± 3.1", "unit": "% PfCRTEcu1110 control"}, {"measurement": "PfCRT-mediated [3H]CQ transport, cis-inhibition (% PfCRTEcu1110 control)", "setting": "PfCRT^Ecu1110 [7]; [test solute] = 2 mM", "result": "28 ± 1.3", "unit": "% PfCRTEcu1110 control"}, {"measurement": "[3H]CQ transport (% PfCRTEcu1110 control), cis-inhibition, PfCRTEcu1110", "setting": "PfCRT^Ecu1110 [7]; cis-inhibition, [test solute] = 2 mM, PfCRT-mediated component (background subtracted), sheet title says normalised to PfCRTDd2 control, mean ± SEM, SEM", "result": "9.0 ± 0.03", "unit": "% PfCRTEcu1110 control"}, {"measurement": "PfCRT-mediated [3H]CQ transport, cis-inhibition (% PfCRTDd2 control)", "setting": "PfCRT^Dd2 [8]; [test solute] = 0.5 mM", "result": "44 ± 2.3", "unit": "% PfCRTDd2 control"}, {"measurement": "PfCRT-mediated [3H]CQ transport, cis-inhibition (% PfCRTDd2 control)", "setting": "PfCRT^Dd2 [8]; [test solute] = 1 mM", "result": "31 ± 1.0", "unit": "% PfCRTDd2 control"}, {"measurement": "PfCRT-mediated [3H]CQ transport, cis-inhibition (% PfCRTDd2 control)", "setting": "PfCRT^Dd2 [8]; [test solute] = 2 mM", "result": "19 ± 0.8", "unit": "% PfCRTDd2 control"}]}]}
